Here are results for six compounds from ChEMBL document CHEMBL1134524, “Utilization of an intramolecular hydrogen bond to increase the CNS penetration of an NK(1) receptor antagonist” (J Med Chem, 2001).

Substance-P receptor, sequence (P25103 whole entry): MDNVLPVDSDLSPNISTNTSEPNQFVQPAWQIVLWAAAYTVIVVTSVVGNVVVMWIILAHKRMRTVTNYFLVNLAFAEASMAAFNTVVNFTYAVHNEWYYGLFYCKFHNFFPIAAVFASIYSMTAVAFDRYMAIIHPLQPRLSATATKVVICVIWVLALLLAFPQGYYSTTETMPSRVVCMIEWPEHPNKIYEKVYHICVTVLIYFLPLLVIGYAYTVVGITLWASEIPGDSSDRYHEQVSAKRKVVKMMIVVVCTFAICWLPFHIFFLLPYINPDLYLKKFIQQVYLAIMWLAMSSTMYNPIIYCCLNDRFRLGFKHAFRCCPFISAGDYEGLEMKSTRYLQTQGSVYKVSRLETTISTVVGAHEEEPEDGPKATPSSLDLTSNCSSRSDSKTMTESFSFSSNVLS

The first test concerns the target Substance-P receptor (Homo sapiens, UniProt P25103). Description: Inhibition of specific binding at tachykinin receptor 1.
Conditions: not given
As usually defined, the IC50 is the point on the concentration scale where inhibition reaches its midpoint. A low value points to inhibition by little substance. Consider `COC[C@](Cc1c[nH]c2ccccc12)(NC(=O)OCc1cc2ccccc2o1)C(=O)N[C@@H](C)c1ccccc1`, for which the IC50 amounted to 0.7 nM.
In turn, `C[C@H](NC(=O)[C@](Cc1c[nH]c2ccccc12)(CN(C)C)NC(=O)OCc1cc2ccccc2o1)c1ccccc1` yielded an IC50 of 0.46 nM.
Same read-out and setting: under `CC(C)C[C@](Cc1c[nH]c2ccccc12)(NC(=O)OCc1cc2ccccc2o1)C(=O)N[C@@H](C)c1ccccc1` stands 3.79 nM; under `CCC[C@](Cc1c[nH]c2ccccc12)(NC(=O)OCc1cc2ccccc2o1)C(=O)N[C@@H](C)c1ccccc1`, 0.85 nM.
As to `C[C@H](NC(=O)[C@@H](Cc1c[nH]c2ccccc12)NC(=O)OCc1cc2ccccc2o1)c1ccccc1`, the IC50 was 0.73 nM.
For `CC[C@](Cc1c[nH]c2ccccc12)(NC(=O)OCc1cc2ccccc2o1)C(=O)N[C@@H](C)c1ccccc1`, the IC50 was 0.96 nM.

The next test has as its system Meriones unguiculatus. Description: Minimal effective dose to antagonize the foot tapping response when administered subcutaneously (0.1-10 mg/kg) in gerbil. To be noted: sc, read-out: MED.
As for `C[C@H](NC(=O)[C@](Cc1c[nH]c2ccccc12)(CN(C)C)NC(=O)OCc1cc2ccccc2o1)c1ccccc1`, the minimal effective dose was 1 mg/kg.
